Laboratory results from ChEMBL document CHEMBL1800055, “Orally active MMP-1 sparing α-tetrahydropyranyl and α-piperidinyl sulfone matrix metalloproteinase (MMP) inhibitors with efficacy in cancer, arthritis, and cardiovascular disease” (J Med Chem, 2010).
Calls of active or inactive are those of the source. No cut-off for these calls is given here.

Experiments:
[1] = Cmax in rat at 20 mg/kg, po; format: ADME, organism-based; parameters: dose 20 mg/kg, route oral; conditions: in vivo
Matrilysin = biological target: T1, Matrilysin (Homo sapiens, UniProt P09237)
T1 sequence (P09237 whole entry): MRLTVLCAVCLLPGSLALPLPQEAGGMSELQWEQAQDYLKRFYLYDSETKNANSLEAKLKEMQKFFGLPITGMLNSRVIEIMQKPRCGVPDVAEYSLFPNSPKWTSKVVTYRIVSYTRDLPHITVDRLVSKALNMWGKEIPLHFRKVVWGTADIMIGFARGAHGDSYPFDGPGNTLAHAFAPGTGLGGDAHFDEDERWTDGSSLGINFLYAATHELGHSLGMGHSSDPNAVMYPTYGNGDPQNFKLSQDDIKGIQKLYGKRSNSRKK

[2] = biological target: 72 kDa type IV collagenase (Homo sapiens, UniProt P08253)
Neutrophil collagenase = Neutrophil collagenase (Homo sapiens, UniProt P22894)
[3] = Oral bioavailability in rat at 20 mg/kg; format: ADME, organism-based; conditions: in vivo
Stromelysin-1 = Stromelysin-1 (Homo sapiens, UniProt P08254)
[4] = Half life in rat at 20 mg/kg, po; format: ADME, organism-based; parameters: dose 20 mg/kg, route oral; conditions: in vivo
Rattus norvegicus [5] = assay: Plasma concentration in rat at 20 mg/kg, po; format: ADME, organism-based; parameters: dose 20 mg/kg, route oral; conditions: in vivo
PC-3 [6] = assay: Antitumor activity against human PC3 cells xenografted in BALB/c nu/nu mouse assessed as tumor growth inhibition at 100 mg/kg, po BID measured on 25 to 30 days relative to control; format: functional
Rattus norvegicus [7] = assay: Cardioprotective activity in rat myocardial infarction model assessed inhibition of left ventricular dilation at 50 mg/kg, po qd for 4 weeks (reference value: 0.69 +/- 0.02 mL); format: functional, Heart left ventricle
PC-3 [8] = assay: Antitumor activity against human PC3 cells xenografted in BALB/c nu/nu mouse assessed as tumor growth inhibition at 200 mg/kg, po BID measured on 25 to 30 days relative to control; format: functional
MX1 = assay: Antitumor activity against human MX1 cells xenografted in cyclophosphamide-treated nude mouse adjuvant model assessed as increase in mouse survival time at 6 to 50 mg/kg, po BID measured up to 90 days; format: functional, organism-based
Interstitial collagenase = biological target: T2, Interstitial collagenase (Homo sapiens, UniProt P03956); format: cell-based, HT-1080
T2 sequence (P03956 whole entry): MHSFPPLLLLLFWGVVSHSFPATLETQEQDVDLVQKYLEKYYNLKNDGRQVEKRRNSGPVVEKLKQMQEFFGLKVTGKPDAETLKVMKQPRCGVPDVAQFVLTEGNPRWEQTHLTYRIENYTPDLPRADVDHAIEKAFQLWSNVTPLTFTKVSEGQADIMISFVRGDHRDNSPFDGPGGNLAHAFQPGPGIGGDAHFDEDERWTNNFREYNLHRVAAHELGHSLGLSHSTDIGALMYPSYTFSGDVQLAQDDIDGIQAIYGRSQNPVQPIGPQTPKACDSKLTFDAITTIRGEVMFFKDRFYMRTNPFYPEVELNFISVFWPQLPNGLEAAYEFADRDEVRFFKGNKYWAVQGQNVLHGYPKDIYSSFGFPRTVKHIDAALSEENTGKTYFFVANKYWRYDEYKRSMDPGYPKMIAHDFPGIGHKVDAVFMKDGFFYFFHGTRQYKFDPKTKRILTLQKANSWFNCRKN

Mus musculus [9] = assay: Toxicity in mouse assessed as mortality administered bid for 90 days; format: organism-based; conditions: in vivo, 2160 h
PC-3 [10] = assay: Antitumor activity against human PC3 cells xenografted in po dosed BALB/c nu/nu mouse assessed as tumor growth inhibition administered BID measured on 25 to 30 days; format: functional, organism-based
Cartilage tissue = assay: Ex vivo inhibition of IL-1 and oncostatin M-induced bovine nasal cartilage degradation assessed as release of hydroxproline measured up to 16 days by mass spectrometry; format: functional, tissue-based; conditions: Bos taurus, 384 h
PC-3 [11] = assay: Antitumor activity against human PC3 cells xenografted in BALB/c nu/nu mouse assessed as tumor growth inhibition at 25 mg/kg, po BID for 30 days measured on 25 to 30 days relative to control; format: functional
Collagenase 3 = Collagenase 3 (Homo sapiens, UniProt P45452)
[12] = AUC (0 to infinity) in male mouse at 20 mg/kg, po after 24 hrs; format: ADME, organism-based; parameters: time infinity, dose 20 mg/kg, route oral; conditions: plasma
[13] = AUC (0 to infinity) in female dog at 20 mg/kg, po after 24 hrs; format: ADME, organism-based, Canis lupus familiaris; parameters: time infinity, dose 20 mg/kg, route oral; conditions: plasma
[14] = Cmax in cynomolgus monkey at 20 mg/kg, po after 24 hrs; format: ADME, organism-based, Macaca fascicularis; parameters: dose 20 mg/kg, route oral; conditions: in vivo
[15] = Tmax in male dog at 20 mg/kg, po after 24 hrs; format: ADME, organism-based, Canis lupus familiaris; parameters: dose 20 mg/kg, route oral; conditions: in vivo
[16] = AUC (0 to infinity) in female rat at 20 mg/kg, po after 24 hrs; format: ADME, organism-based; parameters: time infinity, dose 20 mg/kg, route oral; conditions: plasma
[17] = Tmax in female dog at 20 mg/kg, po after 24 hrs; format: ADME, organism-based, Canis lupus familiaris; parameters: dose 20 mg/kg, route oral; conditions: in vivo
[18] = AUC (0 to infinity) in male dog at 20 mg/kg, po after 24 hrs; format: ADME, organism-based, Canis lupus familiaris; parameters: time infinity, dose 20 mg/kg, route oral; conditions: plasma
[19] = AUC (0 to infinity) in female mouse at 20 mg/kg, po after 24 hrs; format: ADME, organism-based; parameters: time infinity, dose 20 mg/kg, route oral; conditions: plasma
[20] = Oral bioavailability in female dog at 20 mg/kg after 24 hrs; format: ADME, organism-based, Canis lupus familiaris; conditions: in vivo
[21] = AUC (0 to infinity) in cynomolgus monkey at 20 mg/kg, po after 24 hrs; format: ADME, organism-based, Macaca fascicularis; parameters: dose 20 mg/kg, route oral, time infinity; conditions: plasma
[22] = Oral bioavailability in male dog at 20 mg/kg after 24 hrs; format: ADME, organism-based, Canis lupus familiaris; conditions: in vivo
[23] = Tmax in cynomolgus monkey at 20 mg/kg, po after 24 hrs; format: ADME, organism-based, Macaca fascicularis; parameters: dose 20 mg/kg, route oral; conditions: in vivo
[24] = Cmax in female rat at 20 mg/kg, po after 24 hrs; format: ADME, organism-based; parameters: dose 20 mg/kg, route oral; conditions: in vivo
[25] = AUC (0 to infinity) in male rat at 20 mg/kg, po after 24 hrs; format: ADME, organism-based; parameters: time infinity, dose 20 mg/kg, route oral; conditions: plasma
[26] = Tmax in female mouse at 20 mg/kg, po after 24 hrs; format: ADME, organism-based; parameters: dose 20 mg/kg, route oral; conditions: in vivo
Mus musculus [27] = assay: Antiangiogenic activity in cornea of mouse bFGF-induced corneal micropocket model assessed as inhibition of angiogenesis at 5 mg/kg administered as BID; format: functional
[28] = Oral bioavailability in female mouse at 20 mg/kg after 24 hrs; format: ADME, organism-based; conditions: in vivo
Rattus norvegicus [29] = assay: Cardioprotective activity in rat myocardial infarction model assessed inhibition of left ventricular dilation at 10 mg/kg, po qd for 4 weeks (reference value: 0.59 +/- 0.02 mL); format: functional, Heart left ventricle
[30] = Tmax in male rat at 20 mg/kg, po after 24 hrs; format: ADME, organism-based; parameters: dose 20 mg/kg, route oral; conditions: in vivo
[31] = Cmax in male rat at 20 mg/kg, po after 24 hrs; format: ADME, organism-based; parameters: dose 20 mg/kg, route oral; conditions: in vivo
[32] = Oral bioavailability in male rat at 20 mg/kg after 24 hrs; format: ADME, organism-based; conditions: in vivo
[33] = Oral bioavailability in cynomolgus monkey at 20 mg/kg after 24 hrs; format: ADME, organism-based, Macaca fascicularis; conditions: in vivo
[34] = Tmax in male mouse at 20 mg/kg, po after 24 hrs; format: ADME, organism-based; parameters: dose 20 mg/kg, route oral; conditions: in vivo
[35] = Cmax in female dog at 20 mg/kg, po after 24 hrs; format: ADME, organism-based, Canis lupus familiaris; parameters: dose 20 mg/kg, route oral; conditions: in vivo
[36] = Cmax in male dog at 20 mg/kg, po after 24 hrs; format: ADME, organism-based, Canis lupus familiaris; parameters: dose 20 mg/kg, route oral; conditions: in vivo
[37] = Tmax in female rat at 20 mg/kg, po after 24 hrs; format: ADME, organism-based; parameters: dose 20 mg/kg, route oral; conditions: in vivo
[38] = Cmax in male mouse at 20 mg/kg, po after 24 hrs; format: ADME, organism-based; parameters: dose 20 mg/kg, route oral; conditions: in vivo
[39] = Cmax in female mouse at 20 mg/kg, po after 24 hrs; format: ADME, organism-based; parameters: dose 20 mg/kg, route oral; conditions: in vivo
[40] = Oral bioavailability in female rat at 20 mg/kg after 24 hrs; format: ADME, organism-based; conditions: in vivo
[41] = Oral bioavailability in male mouse at 20 mg/kg after 24 hrs; format: ADME, organism-based; conditions: in vivo

72 kDa type IV collagenase, sequence (P08253 whole entry): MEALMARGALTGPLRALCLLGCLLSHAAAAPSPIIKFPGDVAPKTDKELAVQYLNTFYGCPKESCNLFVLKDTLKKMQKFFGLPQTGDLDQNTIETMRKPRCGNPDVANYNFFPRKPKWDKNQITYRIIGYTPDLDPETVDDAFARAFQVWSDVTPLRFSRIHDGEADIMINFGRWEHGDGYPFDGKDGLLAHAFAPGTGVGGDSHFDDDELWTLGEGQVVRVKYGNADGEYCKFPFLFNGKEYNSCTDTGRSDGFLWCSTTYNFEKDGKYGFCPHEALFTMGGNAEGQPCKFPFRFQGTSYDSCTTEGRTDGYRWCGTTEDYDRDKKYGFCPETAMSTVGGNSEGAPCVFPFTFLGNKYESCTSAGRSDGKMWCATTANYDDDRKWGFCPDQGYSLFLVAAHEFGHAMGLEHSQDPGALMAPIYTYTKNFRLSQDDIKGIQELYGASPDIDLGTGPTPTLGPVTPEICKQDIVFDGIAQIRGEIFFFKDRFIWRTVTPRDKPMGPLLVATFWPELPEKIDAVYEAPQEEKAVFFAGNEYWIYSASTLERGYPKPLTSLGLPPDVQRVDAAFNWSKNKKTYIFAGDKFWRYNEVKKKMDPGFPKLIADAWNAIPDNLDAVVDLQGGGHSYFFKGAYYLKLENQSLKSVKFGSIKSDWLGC
Stromelysin-1, sequence (P08254 whole entry): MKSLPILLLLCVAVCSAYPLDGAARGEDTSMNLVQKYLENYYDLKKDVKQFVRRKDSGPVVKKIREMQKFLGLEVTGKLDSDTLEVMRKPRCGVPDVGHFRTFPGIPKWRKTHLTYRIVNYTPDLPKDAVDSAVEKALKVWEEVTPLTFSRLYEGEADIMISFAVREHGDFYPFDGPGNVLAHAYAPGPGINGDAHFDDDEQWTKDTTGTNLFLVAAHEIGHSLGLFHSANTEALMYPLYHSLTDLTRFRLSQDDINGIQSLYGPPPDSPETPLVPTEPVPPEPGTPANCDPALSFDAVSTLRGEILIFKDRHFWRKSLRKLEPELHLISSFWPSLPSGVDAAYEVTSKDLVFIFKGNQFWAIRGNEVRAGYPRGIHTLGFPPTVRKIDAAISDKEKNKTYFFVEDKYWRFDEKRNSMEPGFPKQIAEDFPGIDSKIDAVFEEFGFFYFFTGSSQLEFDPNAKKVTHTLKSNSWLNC
Neutrophil collagenase, sequence (P22894 whole entry): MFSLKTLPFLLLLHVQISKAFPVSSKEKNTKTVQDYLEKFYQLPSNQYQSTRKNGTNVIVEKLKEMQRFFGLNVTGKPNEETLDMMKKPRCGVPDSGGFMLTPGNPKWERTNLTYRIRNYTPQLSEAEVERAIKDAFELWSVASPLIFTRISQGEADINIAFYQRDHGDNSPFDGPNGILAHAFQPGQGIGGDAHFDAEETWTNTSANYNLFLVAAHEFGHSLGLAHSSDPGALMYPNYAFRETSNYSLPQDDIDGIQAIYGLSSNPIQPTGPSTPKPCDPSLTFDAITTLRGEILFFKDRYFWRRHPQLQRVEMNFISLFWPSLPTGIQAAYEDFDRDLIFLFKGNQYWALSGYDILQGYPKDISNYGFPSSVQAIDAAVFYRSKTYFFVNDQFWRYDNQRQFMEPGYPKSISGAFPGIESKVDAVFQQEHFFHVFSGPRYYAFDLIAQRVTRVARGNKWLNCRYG

Compound: O=C(NO)C1(S(=O)(=O)c2ccc(Oc3ccc(C(F)(F)F)cc3)cc2)CCN(C2CC2)CC1
- Cmax [1]: 8320 ng/mL
- IC50 (Matrilysin): > 10 µM
- IC50 [2]: 0.0001 µM
- IC50 (Neutrophil collagenase): 0.0013 µM
- bioavailability [3]: 36.3%
- IC50 (Stromelysin-1): 0.0768 µM
- half-life [4]: 1.48 h
- Cp (Rattus norvegicus [5]): 631 ng/mL

Compound: O=C(NO)C1(S(=O)(=O)c2ccc(Oc3ccc(OC(F)(F)F)cc3)cc2)CCN(C2CC2)CC1
- inhibition in vivo at 100 mg/kg (PC-3 [6]): 65%
- Activity (Rattus norvegicus [7]): 0.62 mL
- inhibition in vivo at 200 mg/kg (PC-3 [8]): 65%
- Cmax [1]: 4160 ng/mL
- Activity (MX1): Active
- IC50 (Interstitial collagenase): 4 µM
- IC50 (Matrilysin): 7 µM
- IC50 [2]: < 0.0001 µM
- IC50 (Neutrophil collagenase): 0.0012 µM
- Activity (Mus musculus [9]): Non-toxic
- inhibition (PC-3 [10]): Dose-dependent effect
- bioavailability [3]: 23%
- IC50 (Stromelysin-1): 0.022 µM
- IC50 (Cartilage tissue): 0.01 µM
- inhibition in vivo at 25 mg/kg (PC-3 [11]): 49%
- half-life [4]: 2.85 h
- Cp (Rattus norvegicus [5]): 440 ng/mL

Compound: C#CCN1CCC(C(=O)NO)(S(=O)(=O)c2ccc(Oc3ccc(S(C)(=O)=O)cc3)cc2)CC1
- Activity (Rattus norvegicus [7]): 0.63 mL
- IC50 (Collagenase 3): 0.0029 µM
- IC50 (Interstitial collagenase): > 10 µM
- IC50 [2]: 0.0033 µM

Compound: COCCN1CCC(C(=O)NO)(S(=O)(=O)c2ccc(Oc3ccc(OC(F)(F)F)cc3)cc2)CC1
- AUC(0-inf) [12]: 29.3 µg·h/mL
- AUC(0-inf) [13]: 156 µg·h/mL
- Cmax [14]: 37100 ng/mL
- Tmax [15]: 0.833 h
- Cmax [1]: 29600 ng/mL
- AUC(0-inf) [16]: 668 µg·h/mL
- IC50 (Collagenase 3): < 0.0001 µM
- IC50 (Interstitial collagenase): > 10 µM
- IC50 (Matrilysin): 7 µM
- IC50 [2]: < 0.0001 µM
- Tmax [17]: 0.5 h
- IC50 (Neutrophil collagenase): 0.0017 µM
- AUC(0-inf) [18]: 228 µg·h/mL
- AUC(0-inf) [19]: 36.1 µg·h/mL
- bioavailability [20]: 69.2%
- AUC(0-inf) [21]: 191 µg·h/mL
- inhibition (PC-3 [10]): Dose-dependent effect
- bioavailability [3]: 67.9%
- bioavailability [22]: 64%
- Tmax [23]: 1.67 h
- Cmax [24]: 69800 ng/mL
- AUC(0-inf) [25]: 273 µg·h/mL
- IC50 (Stromelysin-1): 0.0287 µM
- Tmax [26]: 0.167 h
- inhibition in vivo at 5 mg/kg (Mus musculus [27]): 60%
- bioavailability [28]: 80.8%
- half-life [4]: 2.94 h
- Activity (Rattus norvegicus [29]): 0.51 mL
- Tmax [30]: 2 h
- Cmax [31]: 42400 ng/mL
- bioavailability [32]: 66.6%
- bioavailability [33]: 53.8%
- Tmax [34]: 0.167 h
- Cmax [35]: 68900 ng/mL
- Cmax [36]: 60600 ng/mL
- Tmax [37]: 4 h
- Cmax [38]: 26600 ng/mL
- Cmax [39]: 41000 ng/mL
- Cp (Rattus norvegicus [5]): 20521 ng/mL
- bioavailability [40]: 82.2%
- bioavailability [41]: 51.7%

Compound: O=C(NO)C1(S(=O)(=O)c2ccc(Oc3ccc(OC(F)(F)F)cc3)cc2)CCN(Cc2cccnc2)CC1
- Cmax [1]: 52600 ng/mL
- IC50 (Collagenase 3): 0.0002 µM
- IC50 (Interstitial collagenase): 4.6 µM
- IC50 (Matrilysin): > 10 µM
- IC50 [2]: < 0.0001 µM
- IC50 (Neutrophil collagenase): 0.0015 µM
- bioavailability [3]: 49.8%
- IC50 (Stromelysin-1): 0.0425 µM
- half-life [4]: 1.05 h
- Cp (Rattus norvegicus [5]): 1900 ng/mL
